Test results published in USRE37410E, “Controlled local delivery of chemotherapeutic agents for treating solid tumors” (priority 1999, dated 2001).

What was measured:
[1] = Intracerebral distribution of paclitaxel from polymer implant; assay type: in vivo, rat; details: for time course of paclitaxel brain concentration: 30 days after implant
Protocol: Animals. Male Fischer 344 rats weighing 200-225 g were obtained from Harlan Sprague-Dawley, Inc. (Indianapolis, Ind.), kept in standard animal facilities with 4 rats/cage, and given free access to Certified Rodent Chow No. 5002 (Ralston Purina Co., St. Louis, Mo.) and to Baltimore city water.
Preparation of the paclitaxel loaded polymer. Polymer discs containing labeled paclitaxel were prepared as above, except that a small amount of ^3 H-labeled paclitaxel (specific activity, 19.3 Ci/mmol; National Cancer Institute) in toluene was added to the initial solution of polymer and paclitaxel in methylene chloride. The polymer-paclitaxel mixture was then dried in a vacuum desiccator and pressed into discs using a table vise calibrated to form a pellet.
Paclitaxel-polymer implantation. The procedure for polymer implantation in the rat has been described by Tamargo, R. J., et al. (Cancer Res. 53:329-333 (1993)), the teachings of which are incorporated herein by reference. Briefly, the heads of anesthetized rats were shaved and prepared aseptically. The skull was exposed with a midline incision, and a 3-mm burr hole was drilled through the skull 5 mm posterior and 3 mm lateral to the bregma. The dura was incised with a microsurgical knife (Edward Weck and Co., Inc., Research Triangle Park, N.C.), and the polymer disc was inserted into the brain parenchyma. The wound was irrigated and closed with surgical clips (Clay Adams, Parsippany, N.J.).
Protocol for intracerebral drug distribution. Twelve rats were given implants of 10-mg discs containing 40% paclitaxel by weight and 0.60 μCi/mg disc weight. At 3, 9, 17, and 30 days postimplantation, groups of 3 rats each were euthanized. The skull was opened and the brain exposed. The polymer disc was removed from the brain in situ. The brain was then removed from the skull and snap frozen in heptane over dry ice. The brain was sectioned in the midline into implant and contralateral hemispheres. Each hemisphere was sectioned coronally at 2-mm intervals by using a tissue blade grid consisting of individual tissue blades arranged in parallel separated by 2-mm metal spacers. Each section was weighed, dissolved in 15 ml Solvable homogenizing solution (New England Nuclear Dupont, Boston, Mass.), and combined with 15 ml Atomlight™ scintillation mixture (New England Nuclear Dupont). The brain samples were counted on a Beckman liquid scintillation counter. Raw counts were corrected for quenching and converted to dpm using a linear regression based on a series of quenched standards.
To convert dpm/mg tissue to paclitaxel concentration, a second experiment was performed. Four rats were given implants of 40% loaded polymer discs with 0.39 μCi/mg. One rat each was sacrificed at 3, 9, 17, and 30 days. The brain was removed and frozen as above. A 2-mm coronal section was taken through the site of the polymer implant. The section was minced and extracted with ethanol. The ethanol fraction was divided in two. […] The Rf value for the paclitaxel was determined and each lane cut into 4 sections: A. origin; B, origin to paclitaxel spot; C. paclitaxel spot; and D. paclitaxel spot to solvent front. The chromatography strips were combined with Atomlight™ mixture and counted in a liquid scintillation counter. […] To determine the efficiency of extraction, the remaining half of the original extract was combined with mixture and counted, and the residual brain tissue was homogenized and counted as above. […]

[2] = human, in vivo; cited from earlier work
[3] = test system: ovarian, breast, lung, and prostatic cancer and melanoma; details: cited from earlier work
[4] = In vitro release of paclitaxel from PCPP-SA (20:80) polymer discs; assay type: physicochemical
Protocol: Solid paclitaxel, obtained from Napro Biotherapeutics (Boulder, Colo.) or from the National Cancer Institute (Bethesda, Md.), was mixed with poly[bis(p-carboxyphenoxy)propane-sebacic acid] copolymer (PCPP-SA) (20:80) synthesized according to the method of Domb, A. J., and R. Langer (J. Polym. Sci. 25:3373-3386 (1987)), the teachings of which are incorporated herein by reference, to give a mixture containing 0, 20, 30, or 40% paclitaxel by weight. The paclitaxel-polymer mixture was dissolved in methylene chloride (Fluka, Switzerland) to give a 10% solution (w:v). The solvent was evaporated with a nitrogen stream to yield a dry powder. […]
The efficiency of the delivery of paclitaxel incorporated into a biodegradable polymer into the surrounding medium was assessed in vitro as follows. […]
Protocol. […] The releasing medium was replaced at specified times during the 45-day (1000 hour) incubation period, and the recovered solutions were analyzed by scintillation counting and high pressure liquid chromatography (HPLC). […] Radioactive analysis to quantify the amount of paclitaxel release was done by mixing 200 μl of the releasing buffer solution with 4 ml of a scintillation mixture composed of toluene and Lumax (Landgraat, The Netherlands) scintillation mixture in a 2:1 volume ratio. This solution was counted on a 1211 Rack β-liquid scintillation counter (LKB-Wallac OY, Finland). […]

[5] = cell-culture medium; cited from earlier work
intracranial gliomas = details: i.p.; cited from earlier work

CC(=O)O[C@H]1C(=O)[C@@]2(C)[C@H]([C@H](OC(=O)c3ccccc3)[C@]3(O)C[C@H](OC(=O)[C@H](O)[C@@H](NC(=O)c4ccccc4)c4ccccc4)C(C)=C1C3(C)C)[C@]1(OC(C)=O)CO[C@@H]1C[C@@H]2O [paclitaxel]
time course of paclitaxel brain concentration [1]: still constant or rising throughout the rat brain 30 days after implant | time course of paclitaxel brain concentration ([1]; listed as Paclitaxel): increased slightly during the 30 days | duration of elevated paclitaxel concentration in brain ([1]; after implantation in the rat brain): at least one month | raw counts tissue bound ([1]; brain, each time point): 31±3% | raw counts representing parent drug ([1]; brain, each time point, ± standard error of the mean): approximately 56±3% | clearance [2]: extensive non-renal clearance | concentrations cytotoxic in vitro [3]: nanomolecular concentrations | release profile ([4]; each of the polymer loadings, phosphate buffer pH 7.4, 37° C): released biphasically from the polymer, with an initial burst phase followed by a slower constant release phase | identity of released paclitaxel by HPLC ([4]; released into buffer): corresponded with intact paclitaxel | hydrolysis to inactive compounds [5]: less than 10% | increased survival from systemic intraperitoneal injections (intracranial gliomas): no increased survival
